From US20240199584A1, “KRAS INHIBITORS” (Bristol-Myers Squibb Company, priority 2022, published 2024)
Where two headings read alike, the source gives them in different places.

Assays:
KRAS G12A = target: T1, KRAS G12A (Homo sapiens, UniProt P01116, G12A); assay: Cellular KRAS:RAF Disruption Assay (NanoBRET), KRAS G12A; format: cell-based; details: HEK293 T cells co-expressing RAF1 and KRAS G12A, 24 hours; read-out: RAS::RAF binding via NanoBRET IC50, KRAS G12A
T1 construct: expressed in transfected cells
T1 sequence (P01116 1-188 isoform P01116-2 G12A): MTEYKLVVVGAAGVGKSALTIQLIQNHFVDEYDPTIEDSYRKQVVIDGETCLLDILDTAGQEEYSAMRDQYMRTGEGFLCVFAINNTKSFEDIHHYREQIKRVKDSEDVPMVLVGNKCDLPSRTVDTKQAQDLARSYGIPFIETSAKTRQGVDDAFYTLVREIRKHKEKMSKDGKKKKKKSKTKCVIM
Procedure: (§1) Cellular KRAS:RAF Disruption Assay
(§2) Stable cell lines (HEK293 T) were generated to co-express RAF1 and mutant or wild type KRAS, as indicated, using the BiBRET vector (Promega). Engineered cell lines were suspended in media (OptiMEM, […]), plated in 384-well plates (8000 cells/well), and allowed to rest for 1.5 hours. Cells were treated with compounds for 24 hours, and NanoBRET NanoGlo substrate (Promega) was added per the manufacturer's instructions.

KRAS WT = target: T2, KRAS WT (Homo sapiens, UniProt P01116); assay: Cellular KRAS:RAF Disruption Assay (NanoBRET), KRAS WT; format: cell-based; details: HEK293 T cells co-expressing RAF1 and wild type KRAS, 24 hours; read-out: RAS::RAF binding via NanoBRET IC50, KRAS WT
T2 construct: expressed in transfected cells
T2 sequence (P01116 1-188 isoform P01116-2): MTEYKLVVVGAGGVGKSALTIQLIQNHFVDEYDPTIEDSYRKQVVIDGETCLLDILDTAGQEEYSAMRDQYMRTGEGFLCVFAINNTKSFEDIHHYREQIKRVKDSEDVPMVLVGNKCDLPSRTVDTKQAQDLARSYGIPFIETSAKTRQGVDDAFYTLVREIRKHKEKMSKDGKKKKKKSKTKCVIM
Procedure: as §1, §2

KRAS G13D = target: T3, KRAS G13D (Homo sapiens, UniProt P01116, G13D); assay: Cellular KRAS:RAF Disruption Assay (NanoBRET), KRAS G13D; format: cell-based; details: HEK293 T cells co-expressing RAF1 and KRAS G13D, 24 hours; read-out: RAS::RAF binding via NanoBRET IC50, KRAS G13D
T3 construct: expressed in transfected cells
T3 sequence (P01116 1-188 isoform P01116-2 G13D): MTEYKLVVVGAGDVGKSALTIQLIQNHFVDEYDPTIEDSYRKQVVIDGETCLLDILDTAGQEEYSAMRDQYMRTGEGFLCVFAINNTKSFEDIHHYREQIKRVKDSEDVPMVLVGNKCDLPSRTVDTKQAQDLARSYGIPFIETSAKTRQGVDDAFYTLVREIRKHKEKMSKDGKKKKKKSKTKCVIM
Procedure: as §1, §2

KRAS G12V = target: T4, KRAS G12V (Homo sapiens, UniProt P01116, G12V); assay: Cellular KRAS:RAF Disruption Assay (NanoBRET), KRAS G12V; format: cell-based; details: HEK293 T cells co-expressing RAF1 and KRAS G12V, 24 hours; read-out: RAS::RAF binding via NanoBRET IC50, KRAS G12V
T4 construct: expressed in transfected cells
T4 sequence (P01116 1-188 isoform P01116-2 G12V): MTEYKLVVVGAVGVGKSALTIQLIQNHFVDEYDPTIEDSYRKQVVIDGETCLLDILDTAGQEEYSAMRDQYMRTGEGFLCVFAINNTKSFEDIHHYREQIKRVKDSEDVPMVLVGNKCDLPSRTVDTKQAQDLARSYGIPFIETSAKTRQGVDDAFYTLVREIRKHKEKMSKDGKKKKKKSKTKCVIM
Procedure: as §1, §2

KRAS Q61H = target: T5, KRAS Q61H (Homo sapiens, UniProt P01116, Q61H); assay: Cellular KRAS:RAF Disruption Assay (NanoBRET), KRAS Q61H; format: cell-based; details: HEK293 T cells co-expressing RAF1 and KRAS Q61H, 24 hours; read-out: RAS::RAF binding via NanoBRET IC50, KRAS Q61H
T5 construct: expressed in transfected cells
T5 sequence (P01116 1-188 isoform P01116-2 Q61H): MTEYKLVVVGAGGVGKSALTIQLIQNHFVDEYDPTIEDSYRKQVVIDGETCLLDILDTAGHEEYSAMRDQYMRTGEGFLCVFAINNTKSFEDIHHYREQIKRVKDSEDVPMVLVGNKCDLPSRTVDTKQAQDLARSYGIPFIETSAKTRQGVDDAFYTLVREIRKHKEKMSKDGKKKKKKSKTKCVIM
Procedure: as §1, §2

KRAS Q61R = target: T6, KRAS Q61R (Homo sapiens, UniProt P01116, Q61R); assay: Cellular KRAS:RAF Disruption Assay (NanoBRET), KRAS Q61R; format: cell-based; details: HEK293 T cells co-expressing RAF1 and KRAS Q61R, 24 hours; read-out: RAS::RAF binding via NanoBRET IC50, KRAS Q61R
T6 construct: expressed in transfected cells
T6 sequence (P01116 1-188 isoform P01116-2 Q61R): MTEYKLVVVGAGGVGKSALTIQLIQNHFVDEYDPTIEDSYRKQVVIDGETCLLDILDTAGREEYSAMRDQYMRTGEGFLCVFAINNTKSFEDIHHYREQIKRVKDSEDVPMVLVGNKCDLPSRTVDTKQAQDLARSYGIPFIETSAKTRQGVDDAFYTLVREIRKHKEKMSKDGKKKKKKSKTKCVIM
Procedure: as §1, §2

KRAS A146T = target: T7, KRAS A146T (Homo sapiens, UniProt P01116, A146T); assay: Cellular KRAS:RAF Disruption Assay (NanoBRET), KRAS A146T; format: cell-based; details: HEK293 T cells co-expressing RAF1 and KRAS A146T, 24 hours; read-out: RAS::RAF binding via NanoBRET IC50, KRAS A146T
T7 construct: expressed in transfected cells
T7 sequence (P01116 1-188 isoform P01116-2 A146T): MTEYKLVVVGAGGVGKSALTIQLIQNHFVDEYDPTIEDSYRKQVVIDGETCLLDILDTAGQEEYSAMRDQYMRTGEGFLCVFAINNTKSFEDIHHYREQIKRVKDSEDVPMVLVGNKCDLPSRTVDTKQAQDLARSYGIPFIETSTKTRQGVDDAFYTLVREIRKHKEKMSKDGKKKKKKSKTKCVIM
Procedure: as §1, §2

KRAS G12R = target: T8, KRAS G12R (Homo sapiens, UniProt P01116, G12R); assay: Cellular KRAS:RAF Disruption Assay (NanoBRET), KRAS G12R; format: cell-based; details: HEK293 T cells co-expressing RAF1 and KRAS G12R, 24 hours; read-out: RAS::RAF binding via NanoBRET IC50, KRAS G12R
T8 construct: expressed in transfected cells
T8 sequence (P01116 1-188 isoform P01116-2 G12R): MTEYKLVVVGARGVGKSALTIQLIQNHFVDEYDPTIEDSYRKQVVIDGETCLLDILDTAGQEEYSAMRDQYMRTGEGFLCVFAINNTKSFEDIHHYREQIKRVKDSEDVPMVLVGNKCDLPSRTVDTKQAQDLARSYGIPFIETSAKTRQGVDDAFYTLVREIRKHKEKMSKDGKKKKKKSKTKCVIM
Procedure: as §1, §2

KRAS G12S = target: T9, KRAS G12S (Homo sapiens, UniProt P01116, G12S); assay: Cellular KRAS:RAF Disruption Assay (NanoBRET), KRAS G12S; format: cell-based; details: HEK293 T cells co-expressing RAF1 and KRAS G12S, 24 hours; read-out: RAS::RAF binding via NanoBRET IC50, KRAS G12S
T9 construct: expressed in transfected cells
T9 sequence (P01116 1-188 isoform P01116-2 G12S): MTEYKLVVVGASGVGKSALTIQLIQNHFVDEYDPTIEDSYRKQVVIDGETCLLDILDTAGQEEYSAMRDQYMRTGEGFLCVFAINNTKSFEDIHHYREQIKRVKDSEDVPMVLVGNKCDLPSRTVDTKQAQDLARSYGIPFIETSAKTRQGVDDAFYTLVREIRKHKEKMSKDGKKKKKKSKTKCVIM
Procedure: as §1, §2

KRAS G12C = target: T10, KRAS G12C (Homo sapiens, UniProt P01116, G12C); assay: Cellular KRAS:RAF Disruption Assay (NanoBRET), KRAS G12C; format: cell-based; details: HEK293 T cells co-expressing RAF1 and KRAS G12C, 24 hours; read-out: RAS::RAF binding via NanoBRET IC50, KRAS G12C
T10 construct: expressed in transfected cells
T10 sequence (P01116 1-188 isoform P01116-2 G12C): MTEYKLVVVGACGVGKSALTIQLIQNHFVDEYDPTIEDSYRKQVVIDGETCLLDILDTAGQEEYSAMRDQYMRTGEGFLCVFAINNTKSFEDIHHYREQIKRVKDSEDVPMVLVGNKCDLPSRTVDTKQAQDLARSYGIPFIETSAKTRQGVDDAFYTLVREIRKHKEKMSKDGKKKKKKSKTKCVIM
Procedure: as §1, §2

KRAS G12D [1] = target: T11, KRAS G12D (Homo sapiens, UniProt P01116, G12D); assay: biochemical
T11 sequence (P01116 1-188 isoform P01116-2 G12D): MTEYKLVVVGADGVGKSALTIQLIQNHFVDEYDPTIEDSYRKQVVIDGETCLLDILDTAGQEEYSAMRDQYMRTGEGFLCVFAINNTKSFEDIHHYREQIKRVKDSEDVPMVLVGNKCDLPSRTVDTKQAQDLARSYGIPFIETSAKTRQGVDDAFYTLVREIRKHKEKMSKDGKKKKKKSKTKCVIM

KRAS G12D [2] = target: T11, KRAS G12D; assay: biochemical; remark: listed apart in the source

Row | IC50 (KRAS G12A) [µM] | IC50 (KRAS WT) [µM] | IC50 (KRAS G13D) [µM] | IC50 (KRAS G12V) [µM] | IC50 (KRAS Q61H) [µM] | IC50 (KRAS Q61R) [µM] | IC50 (KRAS A146T) [µM] | IC50 (KRAS G12R) [µM] | IC50 (KRAS G12S) [µM] | IC50 (KRAS G12C) [µM] | IC50 (KRAS G12D [1]) [µM] | IC50 (KRAS G12D [2]) [µM] | Compound
1 | 0.144 | 0.04 | 0.199 | 0.68 | 0.474 | > 10 | 0.315 | 7.51 | 0.313 | 0.367 |  |  | C#Cc1c(F)ccc2cc(O)cc(-c3ccc4c(N5CC6CCC(C5)N6C(=O)C(F)(F)F)nc(OC[C@@]56CCCN5C[C@H](F)C6)nc4c3F)c12 [Example 7-3, 1-[3-(2-{[(2R,7aS)-2-fluoro-hexahydro-1H-pyrrolizin-7a-yl]methoxy}-7-(8-ethynyl-7-fluoro-3-hydroxynaphthalen-1-yl)-8-fluoroquinazolin-4-yl)-3,8-diazabicyclo[3.2.1]octan-8-yl]-2,2,2-trifluoroethan-1-one]
2 | 0.016 | 0.006 | 0.045 | 0.199 | 0.099 | > 10 | 0.076 | 5.3 | 0.029 | 0.025 |  |  | C#Cc1c(F)ccc2cc(O)cc(-c3ncc4c(N5CCOCC5)nc(OC[C@@]56CCCN5C[C@H](F)C6)nc4c3F)c12 [Example 1-1, 4-(2-{[(2R,7aS)-2-fluoro-hexahydro-1H-pyrrolizin-7a-yl]methoxy}-8-fluoro-4-(morpholin-4-yl)pyrido[4,3-d]pyrimidin-7-yl)-5-ethynyl-6-fluoronaphthalen-2-ol]
3 | 0.01 | 0.013 | 0.022 | 0.032 | 0.031 | > 10 | 0.04 | 4.23 | 0.011 | 0.012 |  |  | C#Cc1c(F)ccc2cc(O)cc(-c3ncc4c(N5C6COCC5C6)nc(OC[C@@]56CCCN5C[C@H](F)C6)nc4c3F)c12 [Example 1-35, 4-(2-{[(2R,7aS)-2-fluoro-hexahydro-1H-pyrrolizin-7a-yl]methoxy}-8-fluoro-4-{3-oxa-6-azabicyclo[3.1.1]heptan-6-yl}pyrido[4,3-d]pyrimidin-7-yl)-5-ethynyl-6-fluoronaphthalen-2-ol]
4 | 0.226 | 0.242 | 0.407 | > 5 | 0.504 | > 5 | 0.577 | > 5 | 0.422 | 0.346 | 0.007 | < 0.002 | C#Cc1c(F)ccc2cc(O)cc(-c3ccc4c(N5CC6CCC(C5)N6C(=O)C(F)(F)F)nc(OC[C@]56CCC[C@H]5N(C)CCC6)nc4c3F)c12 [Example 7-7, 1-[3-(2-{[(4aS,7aR)-1-methyl-octahydro-1H-cyclopenta[b]pyridin-4a-yl]methoxy}-7-(8-ethynyl-7-fluoro-3-hydroxynaphthalen-1-yl)-8-fluoroquinazolin-4-yl)-3,8-diazabicyclo[3.2.1]octan-8-yl]-2,2,2-trifluoroethan-1-one]
5 | 0.002 | 0.002 | 0.005 | 0.019 | 0.007 | 1.46 | 0.016 | 0.133 | 0.004 | 0.003 | < 0.002 | < 0.002 | C#Cc1c(F)ccc2cc(O)cc(-c3ncc4c(N5CCCOCC5)nc(OC[C@]56CCC[C@H]5N(C)CCC6)nc4c3F)c12 [Example 1-3, 4-(2-{[(4aS,7aR)-1-methyl-octahydro-1H-cyclopenta[b]pyridin-4a-yl]methoxy}-8-fluoro-4-(1,4-oxazepan-4-yl)pyrido[4,3-d]pyrimidin-7-yl)-5-ethynyl-6-fluoronaphthalen-2-ol]
6 | 0.018 | 0.011 | 0.049 | 0.172 | 0.072 | > 5 | 0.081 | 1.07 | 0.039 | 0.024 |  |  | C#Cc1c(F)ccc2cc(O)cc(-c3ccc4c(N5CCCOCC5)nc(OC[C@]56CCC[C@H]5N(C)CCC6)nc4c3F)c12 [Example 2-3, 4-(2-{[(4aS,7aR)-1-methyl-octahydro-1H-cyclopenta[b]pyridin-4a-yl]methoxy}-8-fluoro-4-(1,4-oxazepan-4-yl)quinazolin-7-yl)-5-ethynyl-6-fluoronaphthalen-2-ol]
7 | 0.003 | 0.002 | 0.008 | 0.026 | 0.016 | 2.29 | 0.017 | 0.204 | 0.006 | 0.005 |  |  | C#Cc1c(F)ccc2cc(O)cc(-c3ccc4c(N5CCCOCC5)nc(OC[C@@]56CCCN5C[C@H](F)C6)nc4c3F)c12 [Example 2-2, 4-(2-{[(2R,7aS)-2-fluoro-hexahydro-1H-pyrrolizin-7a-yl]methoxy}-8-fluoro-4-(1,4-oxazepan-4-yl)quinazolin-7-yl)-5-ethynyl-6-fluoronaphthalen-2-ol]
8 | 0.029 | 0.069 | 0.072 | 0.405 | 0.234 | > 10 | 0.179 | > 10 | 0.109 | 0.117 | 0.9 | < 0.002 | C#Cc1c(F)ccc2cc(O)cc(-c3ncc4c(N5CC6CCC(C5)N6C(=O)C5CC5)nc(OC[C@@]56CCCN5C[C@H](F)C6)nc4c3F)c12 [Example 6-2, 4-(2-{[(2R,7aS)-2-fluoro-hexahydro-1H-pyrrolizin-7a-yl]methoxy}-4-{8-cyclopropanecarbonyl-3,8-diazabicyclo[3.2.1]octan-3-yl}-8-fluoropyrido[4,3-d]pyrimidin-7-yl)-5-ethynyl-6-fluoronaphthalen-2-ol]
